Among the data in ChEMBL document CHEMBL1142118, “Halogenated monoterpene aldehydes from the South African marine alga Plocamium corallorhiza” (J Nat Prod, 2007) are IC50 values, retold here.

The nature of the assay: Cytotoxicity against WHCO1 cells after 48 hrs by MTT assay. It counts as cell-based. The settings on record: Homo sapiens, WHCO1, 48 h.

The IC50 is the concentration that inhibits the measured activity by half. High values mean weaker potency, low ones greater potency. Regarding `CC(/C=C/C(Cl)C(C)(Cl)CBr)=C\C=O` (configuration not stated), the IC50 stood at 64.8 µM.
The result for `C=C(C)C(Br)CC(Br)/C(C)=C/C=O` (configuration not stated) reads 7.5 µM.
